Data published in patent US20100003217A1, “Compounds and Pharmaceutical Compositions for the Treatment of Viral Infections” (priority 2008, published 2010).
Values joined by “and” are separate entries in the source; they are usually repeats but may differ in a detail not shown here. Equal values may be shown once.

Key:
[1] = system: human primary hepatocytes; assay: Metabolic disposition of [^14C]-Compound 1 and [^14C]-2′-C-methyl guanosine in human primary hepatocytes (incubation medium, cellular extracts, nucleotide levels); type: in vitro ADME
Method in brief: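 Radio-HPLC and liquid scintillation counting quantified metabolites in incubation medium and in 70% methanol cell extracts. Samples came from cultured rat, monkey or human primary hepatocytes exposed at 37° C to 1 or 10 μM [^14C]-compound or [^14C]-2′-C-methyl guanosine, sampled at 1–24 hours. Phosphates were confirmed by phosphatase digestion to the nucleoside.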

[2] = system: monkey primary hepatocytes; assay: Metabolic disposition of [^14C]-Compound 1 and [^14C]-2′-C-methyl guanosine in monkey primary hepatocytes (incubation medium, cellular extracts, nucleotide levels); type: in vitro ADME, Cynomolgus monkey; conditions: for AUC (area under the concentration-time curve) of Compound 7 levels: 0-24 h
Method in brief: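 Rat, monkey or human primary hepatocytes on collagen I plates (1.6 million cells/mL) were incubated at 37° C with 1 or 10 μM C-8 [^14C]-labelled compound or 2′-C-methyl guanosine for 1, 4, 8 and 24 hours. Medium and 70% methanol cell extracts were analysed by LSC and radio-HPLC. Nucleotides were identified by alkaline phosphatase treatment and retention-time matching to standards.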

[3] = monkey hepatocytes (Cy234), 10 μM [^14C]-Compound 1, 4 h
[4] = monkey hepatocytes Cy230, 10 μM [^14C]-2′-C-methyl guanosine, 1 h
[5] = monkey hepatocytes Cy230, 10 μM [^14C]-2′-C-methyl guanosine, 8 h
[6] = monkey hepatocytes Cy230, 10 μM [^14C]-2′-C-methyl guanosine, 24 h
[7] = monkey hepatocytes Cy234, 10 μM [^14C]-2′-C-methyl guanosine, 1 h
[8] = monkey hepatocytes Cy234, 10 μM [^14C]-2′-C-methyl guanosine, 4 h
[9] = monkey hepatocytes Cy234, 10 μM [^14C]-2′-C-methyl guanosine, 8 h
[10] = monkey hepatocytes Cy234, 10 μM [^14C]-2′-C-methyl guanosine, 24 h

C[C@@]1(O)[C@H](O)[C@@H](COP(=O)(O)OP(=O)(O)OP(=O)(O)O)O[C@H]1n1cnc2c(=O)[nH]c(N)nc21 [Compound 7, [(2R)-2-methyl-β-D-ribofuranosyl]guanine 5′-triphosphate]
AUC (area under the concentration-time curve) of Compound 7 levels ([1]; human hepatocytes Hu775, 10 μM [^14C]-Compound 1, 0-24 h): 9036 pmol * hr/million cells
2′-C-methyl guanosine nucleotide levels in cellular extracts ([1]; human hepatocytes Hu775, 10 μM [^14C]-Compound 1, 1 h): 54 pmol/million cells and 54.0 pmol/million cells
2′-C-methyl guanosine nucleotide levels in cellular extracts ([1]; human hepatocytes Hu775, 10 μM [^14C]-Compound 1, 4 h): 216 pmol/million cells
2′-C-methyl guanosine nucleotide levels in cellular extracts ([1]; human hepatocytes Hu775, 10 μM [^14C]-Compound 1, 8 h): 366 pmol/million cells
2′-C-methyl guanosine nucleotide levels in cellular extracts ([1]; human hepatocytes Hu775, 10 μM [^14C]-Compound 1, 24 h): 564 pmol/million cells
Compound 7 maximal levels ([1]; human hepatocytes, 1 μM [^14C]-Compound 1): 60.4 pmol/million cells
Maximum Compound 7 levels ([1]; human hepatocytes, 10 μM [^14C]-2′-C-methyl guanosine, at 24 hours): 215 pmol/million cells
Maximum Compound 7 levels ([1]; human hepatocytes, 10 μM [^14C]-Compound 1, at 24 hours, mean of two donors): 296 pmol/million cells
metabolites observed in cellular extracts (% of total radioactivity) ([2]; monkey hepatocytes (Cy230, Cy234), 10 μM [^14C]-Compound 1, 1 h): 63.4% and 34.9%
metabolites observed in cellular extracts (% of total radioactivity) ([2]; monkey hepatocytes (Cy230, Cy234), 10 μM [^14C]-Compound 1, 8 h): 80.9% and 77.6%
metabolites observed in cellular extracts (% of total radioactivity) ([2]; monkey hepatocytes (Cy230, Cy234), 10 μM [^14C]-Compound 1, 24 h): 72.2% and 79.4%
2′-C-methyl guanosine nucleotide levels in cellular extracts [2, 3]: 183 pmol/million cells
metabolites observed in cellular extracts (% of total radioactivity) [2, 3]: 70.3%
2′-C-methyl guanosine nucleotide levels in cellular extracts ([2]; monkey hepatocytes Cy230, 10 μM [^14C]-2′-C-methyl guanosine, 0 h): 0 pmol/million cells
AUC (area under the concentration-time curve) of Compound 7 levels ([2]; monkey hepatocytes Cy230, 10 μM [^14C]-2′-C-methyl guanosine): 241 pmol * hr/million cells
2′-C-methyl guanosine nucleotide levels in cellular extracts [2, 4]: 2.87 pmol/million cells
Major metabolites observed in cellular extracts (% of total radioactivity) [2, 4]: 3.63 % of total radioactivity
2′-C-methyl guanosine nucleotide levels in cellular extracts [2, 5]: 14.58 pmol/million cells and 14.6 pmol/million cells
Major metabolites observed in cellular extracts (% of total radioactivity) [2, 5]: 19.9 % of total radioactivity
2′-C-methyl guanosine nucleotide levels in cellular extracts [2, 6]: 6.85 pmol/million cells
Major metabolites observed in cellular extracts (% of total radioactivity) [2, 6]: 26.6 % of total radioactivity
2′-C-methyl guanosine nucleotide levels in cellular extracts ([2]; monkey hepatocytes Cy230, 10 μM [^14C]-Compound 1, 0 h): 0 pmol/million cells
AUC (area under the concentration-time curve) of Compound 7 levels ([2]; monkey hepatocytes Cy230, 10 μM [^14C]-Compound 1): 13765 pmol * hr/million cells
2′-C-methyl guanosine nucleotide levels in cellular extracts ([2]; monkey hepatocytes Cy230, 10 μM [^14C]-Compound 1, 1 h): 180 pmol/million cells
2′-C-methyl guanosine nucleotide levels in cellular extracts ([2]; monkey hepatocytes Cy230, 10 μM [^14C]-Compound 1, 8 h): 895 pmol/million cells
2′-C-methyl guanosine nucleotide levels in cellular extracts ([2]; monkey hepatocytes Cy230, 10 μM [^14C]-Compound 1, 24 h): 344 pmol/million cells
2′-C-methyl guanosine nucleotide levels in cellular extracts ([2]; monkey hepatocytes Cy234, 10 μM [^14C]-2′-C-methyl guanosine, 0 h): 0 pmol/million cells
AUC (area under the concentration-time curve) of Compound 7 levels ([2]; monkey hepatocytes Cy234, 10 μM [^14C]-2′-C-methyl guanosine): 956 pmol * hr/million cells
2′-C-methyl guanosine nucleotide levels in cellular extracts [2, 7]: 4.00 pmol/million cells
Major metabolites observed in cellular extracts (% of total radioactivity) [2, 7]: 8.70 % of total radioactivity
2′-C-methyl guanosine nucleotide levels in cellular extracts [2, 8]: 29.0 pmol/million cells
Major metabolites observed in cellular extracts (% of total radioactivity) [2, 8]: 35.6 % of total radioactivity
2′-C-methyl guanosine nucleotide levels in cellular extracts [2, 9]: 39.0 pmol/million cells
Major metabolites observed in cellular extracts (% of total radioactivity) [2, 9]: 43.0 % of total radioactivity
2′-C-methyl guanosine nucleotide levels in cellular extracts [2, 10]: 57.0 pmol/million cells
Major metabolites observed in cellular extracts (% of total radioactivity) [2, 10]: 51.8 % of total radioactivity
2′-C-methyl guanosine nucleotide levels in cellular extracts ([2]; monkey hepatocytes Cy234, 10 μM [^14C]-Compound 1, 0 h): 0 pmol/million cells
AUC (area under the concentration-time curve) of Compound 7 levels ([2]; monkey hepatocytes Cy234, 10 μM [^14C]-Compound 1): 9861 pmol * hr/million cells
2′-C-methyl guanosine nucleotide levels in cellular extracts ([2]; monkey hepatocytes Cy234, 10 μM [^14C]-Compound 1, 1 h): 22.0 pmol/million cells
2′-C-methyl guanosine nucleotide levels in cellular extracts ([2]; monkey hepatocytes Cy234, 10 μM [^14C]-Compound 1, 8 h): 476 pmol/million cells
2′-C-methyl guanosine nucleotide levels in cellular extracts ([2]; monkey hepatocytes Cy234, 10 μM [^14C]-Compound 1, 24 h): 552 pmol/million cells
Maximum Compound 7 levels ([2]; monkey hepatocytes, 10 μM [^14C]-2′-C-methyl guanosine, at 24 hours): 32 pmol/million cells
Compound 7 AUC0-24h ([2]; monkey hepatocytes, 10 μM [^14C]-Compound 1): 11,813 pmol*h/million cells
major intracellular metabolite, % of total intracellular radioactivity ([2]; monkey hepatocytes, 10 μM [^14C]-Compound 1, from 4-24 hours): > 70%
Compound 7 peak levels ([2]; monkey hepatocytes, 10 μM [^14C]-Compound 1, at 8 hours in one donor and at 24 hours in the second): 895 pmol/million cells and 552 pmol/million cells
